# Measured values published in publication PMC3003687, “α-Galactosylceramide Analogs with Weak Agonist Activity for Human iNKT Cells Define New Candidate Anti-Inflammatory Agents” (PLoS ONE, 2010).
# Columns and labels:
# human iNKT cell clones = assay: Cytokine ELISA of human iNKT cell clones stimulated with glycolipid-pulsed CD1d-transfected HeLa cells; assay type: cell-based
# Procedure: Capture ELISA assays were used for measurement of cytokine responses of human iNKT cells to αGalCer analogs. One day prior to the experiment, CD1d transfected HeLa cells were plated at 25×10^3 cells/well in 100 µL of medium in flat-bottom 96 well plates. Glycolipids were then added in 100 µL of medium to give final concentrations ranging from 0.05 to 10^4 nM. The APCs were incubated for approximately 18 hours with the glycolipids and then irradiated (10,000 Rad) and washed twice with PBS prior to addition of 25×10^3 iNKT cells well in 300 µL. Supernatants were harvested after 24 hours of co-culture and stored frozen at -20°C. After thawing, aliquots of the supernatants were assayed for specific cytokines by ELISA using capture and biotin-labeled detection antibody pairs specific for GM-CSF, IL-2, IL-4, IL-12p70 and IL-13 (all obtained from BD Biosciences), IFNγ (Thermo-Scientific) or IL-18 (MBL). Specific signals were developed using HRP- conjugated streptavidin (BD Biosciences) and Turbo TMB substrate (Thermo-Scientific). Supernatants were tested pure and/or diluted to give values within a quantitative linear standard curve generated with recombinant cytokines. Curves of dose-dependent cytokine responses and graphs were plotted using the Graphpad Prism Software. EC50 values were calculated using the function log (agonist) response with variable slope, and statistical analyses were carried out using the same software. To calculate concentration-dependent cytokine ratios, IL-4/IFNγ and IL-13/IFNγ ratios were calculated using cytokine values from which background levels (i.e. levels in cultures receiving DMSO vehicle alone) were subtracted. Ratios were calculated by dividing IL-4 or IL-13 concentrations in pg/mL by IFNγ concentration in ng/mL.
# Human iNKT TCRs = Human iNKT TCRs (Homo sapiens, UniProt A0A075B6N4+A0A0B4J240+P15813); assay: Equilibrium binding of analog-loaded hCD1d tetramers to iNKT cell clones
# Sequence of Human iNKT TCRs (P15813 20-301): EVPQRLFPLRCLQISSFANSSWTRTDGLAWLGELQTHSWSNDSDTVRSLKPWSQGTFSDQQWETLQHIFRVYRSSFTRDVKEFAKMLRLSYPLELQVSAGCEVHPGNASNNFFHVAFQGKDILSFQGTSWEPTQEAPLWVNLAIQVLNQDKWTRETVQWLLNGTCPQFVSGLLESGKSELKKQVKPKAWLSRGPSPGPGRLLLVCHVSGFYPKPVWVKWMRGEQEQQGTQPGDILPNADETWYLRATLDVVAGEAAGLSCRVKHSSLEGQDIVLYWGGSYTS
# Sequence of Human iNKT TCRs (P01848 whole entry, further chain): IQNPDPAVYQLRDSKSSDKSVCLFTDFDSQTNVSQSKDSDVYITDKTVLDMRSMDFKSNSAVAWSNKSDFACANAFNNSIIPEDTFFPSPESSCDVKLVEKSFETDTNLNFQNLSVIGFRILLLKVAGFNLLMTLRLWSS
# Sequence of Human iNKT TCRs (A0A0B4J240 22-114): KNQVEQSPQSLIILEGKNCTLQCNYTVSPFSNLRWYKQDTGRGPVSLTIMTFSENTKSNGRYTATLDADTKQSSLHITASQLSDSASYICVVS
# Sequence of Human iNKT TCRs (P61769 21-119, further chain): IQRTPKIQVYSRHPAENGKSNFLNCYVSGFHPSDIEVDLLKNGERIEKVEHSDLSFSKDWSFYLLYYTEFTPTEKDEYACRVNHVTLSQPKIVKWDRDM
# Sequence of Human iNKT TCRs (A0A075B6N4 22-114): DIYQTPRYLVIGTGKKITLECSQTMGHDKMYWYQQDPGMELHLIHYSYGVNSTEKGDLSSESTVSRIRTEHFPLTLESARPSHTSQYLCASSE
# Excerpt: For flow cytometric analysis, 6B11 (Vα24Jα18 specific) and mAbs specific for human CD3, CD4, CD8α, CD19, CD40L (CD154), CD56, CD69, GM-CSF & IFNγ were obtained from BD Biosciences. IL-4 and IL-13 specific mAbs were from Biolegend. Vα24 (C15) and Vβ11 (C21) specific mAb were from Immunotech. For antibody blocking in culture assays, non-specific isotype matched control, IL-2, IFNγ, IL-12p70 and CD40L specific mAbs without preservatives were obtained from BD Biosciences and IL-18 specific mAb from Medical & Biological Laboratories (MBL, Nagoya, Japan). Phycoerythrin and allophycocyanin labeled human CD1d tetramers were prepared in our laboratory as previously described. Curves of tetramer equilibrium binding constants and graphs were plotted using the Graphpad Prism Software (Version 5). KD values were calculated using the function non-linear fit (hyperbola, one binding site).
# To characterize in more detail the iNKT cell TCR recognition of αGalCer analogs presented by human CD1d, we generated soluble and fluorescent tetrameric hCD1d molecules loaded with each of the glycolipid analogs. […] This was similar to the previously reported failure of mouse CD1d tetramer loaded with lysosulfatide to bind detectably to murine non-invariant and sulfatide specific NKT cells, despite a clear reactivity to this lipid upon presentation by APCs; [40]. […] To quantitate their binding avidities to iNKT cell TCRs, we used titration of analog-loaded hCD1d tetramers to determine equilibrium dissociation constants (KD), which are inversely proportional to avidity (Figure 3A and 3B).
# Figure 3 Characterization of human iNKT cell TCR interactions with analog-loaded tetramers. (A) iNKT cell clones were stained with titrated amounts of hCD1d tetramers loaded with the indicated glycolipids (abbreviations as in legend to Figure 1), and the measured MFI values are plotted for selected glycolipids. (B) The equilibrium dissociation constants (KD, inversely proportional to TCR avidity) were determined as the concentrations of tetramers required to yield 50% of maximal binding. Data shown were obtained using the CD4^+ iNKT cell clone HDD3, and similar results (not shown) were obtained with a second CD4^+ clone (HDD11) and a CD4^−8^− double negative iNKT cell clone (HDE3). (C) Analysis of iNKT cell clones labeled with 20 nM of hCD1d tetramers which were loaded with variable excesses of analog to constant hCD1d (25 to 1000 fold molar excess of glycolipid to hCD1d protein). The measured MFI values were normalized as the percent of the maximum staining intensity obtained with each analog loaded tetramer. Data presented were generated with HDD3 (CD4+) iNKT cell clone, and similar results (not shown) were obtained with HDE3 (DN) clone.
# human iNKT cells = settings: cited from earlier work
smiles,measurement,setting,value
CCCCCCCCCCCCCCCCCCCCCCCC(=O)N[C@@H](CO[C@H]1O[C@H](CO)[C@H](O)[C@H](O)[C@H]1O)[C@H](O)[C@H](O)CCCCC [OCH],EC50,"human iNKT cell clones; Homo sapiens, iNKT, HDD3 clone, IL-4 levels did not reach a plateau",> 10 µM
same,induction of IL-4,human iNKT cell clones; all clones tested,minimal
same,concentration required to induce detectable IL-13 production or weak IFNγ secretion,human iNKT cell clones; all iNKT cell clones tested,> 10 nM
same,iNKT cell clone cytokine response / agonist activity,"human iNKT cell clones; dose range, IFNγ, IL-4, IL-13, clones HDD3, HDD11, HDE3, HDA7",much weaker reactivity
same,staining of iNKT cell clones by analog-loaded hCD1d tetramers,Human iNKT TCRs,only a weak staining intensity of a subset of iNKT cell clones tested
same,ability to stimulate human iNKT cells,human iNKT cells,weak or no detectable ability to stimulate human iNKT cells
